Test results: patent publication US4784944A, “Prothrombin time determining reagent and methods of using and preparing the same” (Behringwerke Aktiengesellschaft, priority 1984, dated 1988)
Starred links: 1 amine or outer side, 2 acyl side, 3 side chain; linkers in the order of their positions; H or OH if unused. Non-standard residues stand in square brackets, D forms with d. Residues, ends and D or L forms follow the SMILES beside them. *: point of attachment. Benzoyl(5-NH,2-NO2) = O=C(c1cc(N[*:1])ccc1[N+](=O)[O-])[*:2]; pNA = O=[N+]([O-])c1ccc(N*)cc1; Tos = Cc1ccc(S(=O)(=O)*)cc1

How the values were obtained:
Type in all cases: biochemical
Thromboplastin B = assay: Hydrolysis of chromogenic substrates by thromboplastin B; details: Thromboplastin B 5%; substrate 50 μmol/l; after 92 hours at room temperature; 405 nm
Protocol: (§1) Difference in extinction after 92 hours at room temperature of a reagent prepared according to Example 1. The substrate concentration was 50 μmol/l, and the thromboplastins were dissolved in accordance with the statements of the manufacturer and added at a concentration of 5%.
(§2) 4 to 20 ml of human thromboplastin were added to 70 ml of an aqueous solution containing 5.844 g of NaCl, 1.47 g of CaCl2, 11.92 g of HEPES, 250 μg of polybrene® and 67.1 mg of H-D-Phe-Pro-Arg-ANBA-isopropylamide HCl in one liter, pH 7.6, and the mixture was freeze-dried.

Thromboplastin D = assay: Hydrolysis of chromogenic substrates by thromboplastin D; details: Thromboplastin D 5%; substrate 50 μmol/l; after 92 hours at room temperature; 405 nm
Protocol: as §1, §2

Thromboplastin F = assay: Hydrolysis of chromogenic substrates by thromboplastin F; details: Thromboplastin F 5%; substrate 50 μmol/l; after 92 hours at room temperature; 405 nm
Protocol: as §1, §2

Thromboplastin A = assay: Hydrolysis of chromogenic substrates by thromboplastin A; details: Thromboplastin A 5%; substrate 50 μmol/l; after 92 hours at room temperature; 405 nm
Protocol: as §1, §2

Thromboplastin G = assay: Hydrolysis of chromogenic substrates by thromboplastin G; details: Thromboplastin G 5%; substrate 50 μmol/l; after 92 hours at room temperature; 405 nm
Protocol: as §1, §2

Thromboplastin E = assay: Hydrolysis of chromogenic substrates by thromboplastin E; details: Thromboplastin E 5%; substrate 50 μmol/l; after 92 hours at room temperature; 405 nm
Protocol: as §1, §2

Thromboplastin C = assay: Hydrolysis of chromogenic substrates by thromboplastin C; details: Thromboplastin C 5%; substrate 50 μmol/l; after 92 hours at room temperature; 405 nm
Protocol: as §1, §2

[1] = test system: thromboplastins of the state of the art; assay: Hydrolysis of chromogenic substrates by thromboplastins; details: for Stability of a reagent containing the substrate (in words): reagent with thromboplastin having proteolytic activity
Protocol: The substrate concentration was 50 μmol/l, and the thromboplastins were dissolved in accordance with the statements of the manufacturer and added at a concentration of 5%.

How did the “Difference in extinction (hydrolysis of chromogenic substrate)” value (“Difference in extinction” for short) (Thromboplastin B) turn out when `Cc1ccc(S(=O)(=O)NCC(=O)N2CCC[C@H]2C(=O)N[C@@H](CCCNC(=N)N)C(=O)Nc2ccc([N+](=O)[O-])c(C(=O)NC(C)C)c2)cc1` [Tos-Gly-Pro-Arg-ANBA-isopropylamide] was run?
Its value is 0,039.

What about the “Difference in extinction” value (Thromboplastin D) of the same compound?
Its value is 0,023.

What about the “Difference in extinction” value (Thromboplastin F) of the same compound?
The value was 0,029.

What about the “Difference in extinction” value (Thromboplastin A) of the same compound?
Its value is 0,035.

And the “Difference in extinction” value (Thromboplastin G)?
Its value is 0,018.

And the “Difference in extinction” value (Thromboplastin E)?
Its value is 0,041.

And the “Difference in extinction” value (Thromboplastin C)?
The value was 0,030.

With `CCCCNC(=O)c1cc(NC(=O)[C@H](CCCNC(=N)N)NC(=O)[C@@H]2CCCN2C(=O)[C@H](N)Cc2ccccc2)ccc1[N+](=O)[O-]` [D-Phe-Pro-Arg-ANBA-n-Butylamide] as the compound, how does the “Difference in extinction” value (Thromboplastin B) read?
The value was 0,023.

And the “Difference in extinction” value (Thromboplastin D)?
The value was 0,013.

What about the “Difference in extinction” value (Thromboplastin F) of the same compound?
The value was 0,023.

And the “Difference in extinction” value (Thromboplastin A)?
Its value is 0,021.

What about the “Difference in extinction” value (Thromboplastin G) of the same compound?
The value was 0,012.

And the “Difference in extinction” value (Thromboplastin E)?
Its value is 0,030.

And the “Difference in extinction” value (Thromboplastin C)?
Its value is 0,019.

Which “Difference in extinction” value (Thromboplastin B) does the source give for `CC(C)(C)CNC(=O)c1cc(NC(=O)[C@H](CCCNC(=N)N)NC(=O)[C@@H]2CCCN2C(=O)[C@H](N)Cc2ccccc2)ccc1[N+](=O)[O-]` [D-Phe-Pro-Arg-ANBA-neopentylamide] here?
Its value is 0,009.

What about the “Difference in extinction” value (Thromboplastin D) of the same compound?
Its value is 0,007.

What about the “Difference in extinction” value (Thromboplastin F) of the same compound?
The value was 0,003.

What about the “Difference in extinction” value (Thromboplastin A) of the same compound?
The value was 0,003.

And the “Difference in extinction” value (Thromboplastin G)?
The value was 0,002.

What about the “Difference in extinction” value (Thromboplastin E) of the same compound?
Its value is 0,014.

And the “Difference in extinction” value (Thromboplastin C)?
The value was 0,011.

What does the source list for `CCOC(=O)CNC(=O)c1cc(NC(=O)[C@H](CCCNC(=N)N)NC(=O)[C@@H]2CCCN2C(=O)[C@H](N)Cc2ccccc2)ccc1[N+](=O)[O-]` [D-Phe-Pro-Arg-ANBA-Glycine ethyl ester] (H-[dF]PR[Benzoyl(5-NH,2-NO2)]G-OEt)?
Difference in extinction (hydrolysis of chromogenic substrate) (Thromboplastin B): 0,009; Difference in extinction (hydrolysis of chromogenic substrate) (Thromboplastin D): 0,019; Difference in extinction (hydrolysis of chromogenic substrate) (Thromboplastin F): 0,011; Difference in extinction (hydrolysis of chromogenic substrate) (Thromboplastin A): 0,007; Difference in extinction (hydrolysis of chromogenic substrate) (Thromboplastin G): 0,003; Difference in extinction (hydrolysis of chromogenic substrate) (Thromboplastin E): 0,008; Difference in extinction (hydrolysis of chromogenic substrate) (Thromboplastin C): 0,015

D-Phe-Pro-Arg-ANBA-Valine methyl ester was tested. Which “Difference in extinction” value (Thromboplastin B) did it give?
Its value is 0,031.

And the “Difference in extinction” value (Thromboplastin D)?
The value was 0,020.

What about the “Difference in extinction” value (Thromboplastin F) of the same compound?
The value was 0.

And the “Difference in extinction” value (Thromboplastin A)?
The value was 0,003.

And the “Difference in extinction” value (Thromboplastin G)?
Its value is 0,002.

And the “Difference in extinction” value (Thromboplastin E)?
The value was 0.

What about the “Difference in extinction” value (Thromboplastin C) of the same compound?
Its value is 0,008.

For `CC(C)C[C@H](N)C(=O)Nc1ccc([N+](=O)[O-])cc1` [Leu-pNA, reference compound], which “Difference in extinction” value (Thromboplastin B) is on record?
The value was 0,681.

And the “Difference in extinction” value (Thromboplastin D)?
The value was 0,593.

And the “Difference in extinction” value (Thromboplastin F)?
The value was 0,536.

What about the “Difference in extinction” value (Thromboplastin A) of the same compound?
The value was 0,974.

And the “Difference in extinction” value (Thromboplastin G)?
The value was 1,124.

And the “Difference in extinction” value (Thromboplastin E)?
Its value is 0,871.

What about the “Difference in extinction” value (Thromboplastin C) of the same compound?
The value was 0,721.

With `Cc1ccc(S(=O)(=O)NCC(=O)N2CCC[C@H]2C(=O)N[C@@H](CCCNC(=N)N)C(=O)Nc2ccc([N+](=O)[O-])cc2)cc1` [Tos-Gly-Pro-Arg-pNA, reference compound] (Tos-Gly-Pro-Arg-pNA) as the compound, how does the “Extent of hydrolysis by the thromboplastins (in words)” value ([1]; extinction at 405 nm, Table 1) read?
The value was “rapid consumption of the substrate”.

What about the “Stability of a reagent containing the substrate (in words)” value [1] of the same compound?
Its value is “stable for only a very short time”.

And the “Difference in extinction” value (Thromboplastin B)?
Its value is 0,143.

And the “Difference in extinction” value (Thromboplastin D)?
The value was 0,137.

What about the “Difference in extinction” value (Thromboplastin F) of the same compound?
Its value is 0,116.

And the “Difference in extinction” value (Thromboplastin A)?
Its value is 0,190.

What about the “Difference in extinction” value (Thromboplastin G) of the same compound?
The value was 0,149.

What about the “Difference in extinction” value (Thromboplastin E) of the same compound?
Its value is 0,123.

And the “Difference in extinction” value (Thromboplastin C)?
Its value is 0,115.

`NCCCC[C@H](NC(=O)c1ccccc1)C(=O)Nc1ccc([N+](=O)[O-])cc1` [N-α-Benzoyl-L-Lysine-pNA, reference compound] was tested. Which “Difference in extinction” value (Thromboplastin B) did it give?
Its value is 0,525.

And the “Difference in extinction” value (Thromboplastin D)?
Its value is 0,402.

And the “Difference in extinction” value (Thromboplastin F)?
Its value is 0,198.

And the “Difference in extinction” value (Thromboplastin A)?
The value was 0,319.

What about the “Difference in extinction” value (Thromboplastin G) of the same compound?
Its value is 0,503.

What about the “Difference in extinction” value (Thromboplastin E) of the same compound?
Its value is 0,372.

And the “Difference in extinction” value (Thromboplastin C)?
Its value is 0,433.

`CCOC(=O)CNC(=O)c1cc(NC(=O)[C@H](CCCNC(=N)N)NC(=O)[C@@H]2CCCN2C(=O)CNS(=O)(=O)c2ccc(C)cc2)ccc1[N+](=O)[O-]` [Tos-Gly-Pro-Arg-ANBA-Glycine ethyl ester] (Tos-GPR[Benzoyl(5-NH,2-NO2)]G-OEt) was tested. Which “Difference in extinction” value (Thromboplastin B) did it give?
The value was 0,034.

What about the “Difference in extinction” value (Thromboplastin D) of the same compound?
Its value is 0,026.

And the “Difference in extinction” value (Thromboplastin F)?
The value was 0,023.

What about the “Difference in extinction” value (Thromboplastin A) of the same compound?
Its value is 0,029.

What about the “Difference in extinction” value (Thromboplastin G) of the same compound?
The value was 0,029.

And the “Difference in extinction” value (Thromboplastin E)?
The value was 0,037.

What about the “Difference in extinction” value (Thromboplastin C) of the same compound?
Its value is 0,028.

With `CC(C)NC(=O)c1cc(NC(=O)[C@H](CCCNC(=N)N)NC(=O)[C@@H]2CCCN2C(=O)[C@H](N)Cc2ccccc2)ccc1[N+](=O)[O-]` [D-Phe-Pro-Arg-ANBA-isopropylamide, H-D-Phe-Pro-Arg-ANBA-isopropylamide] as the compound, how does the “Stability of a reagent containing the substrate (in words)” value [1] read?
Its value is “stable for a considerably longer time”.

What about the “Difference in extinction” value (Thromboplastin B) of the same compound?
Its value is 0,016.

What about the “Difference in extinction” value (Thromboplastin D) of the same compound?
The value was 0,013.

And the “Difference in extinction” value (Thromboplastin F)?
The value was 0.

And the “Difference in extinction” value (Thromboplastin A)?
Its value is 0,006.

And the “Difference in extinction” value (Thromboplastin G)?
The value was 0.

What about the “Difference in extinction” value (Thromboplastin E) of the same compound?
The value was 0,011.

And the “Difference in extinction” value (Thromboplastin C)?
The value was 0,010.

Which “Difference in extinction” value (Thromboplastin B) does the source give for `C[C@H](NC(=O)CCC(=O)O)C(=O)N[C@@H](C)C(=O)N[C@@H](C)C(=O)Nc1ccc([N+](=O)[O-])cc1` [Suc-(Ala)3-pNA, reference compound] here?
The value was 0,324.

What about the “Difference in extinction” value (Thromboplastin D) of the same compound?
The value was 0,411.

And the “Difference in extinction” value (Thromboplastin F)?
Its value is 0,310.

What about the “Difference in extinction” value (Thromboplastin A) of the same compound?
The value was 0,211.

What about the “Difference in extinction” value (Thromboplastin G) of the same compound?
The value was 0,202.

What about the “Difference in extinction” value (Thromboplastin E) of the same compound?
Its value is 0,178.

And the “Difference in extinction” value (Thromboplastin C)?
Its value is 0,248.
